In patent US8242160B2, “Inhibitors of ubiquitin E1” (The United States of America, as represented by the …, priority 2005, dated 2012):

Assays:
Rabbit E1 = molecular target: T1, Rabbit E1 (Oryctolagus cuniculus, UniProt Q29504); experiment: E1 only assay: thiolester linkage between 32P-labeled ubiquitin and E1; type: biochemical; conditions: gel-based assay with 32P-labeled ubiquitin; stated after block of E1-ubiquitin thiolester formation (FIG. 1B)
T1 construct: purchased Calbiochem #6620700
T1 sequence (Q29504 1-1058): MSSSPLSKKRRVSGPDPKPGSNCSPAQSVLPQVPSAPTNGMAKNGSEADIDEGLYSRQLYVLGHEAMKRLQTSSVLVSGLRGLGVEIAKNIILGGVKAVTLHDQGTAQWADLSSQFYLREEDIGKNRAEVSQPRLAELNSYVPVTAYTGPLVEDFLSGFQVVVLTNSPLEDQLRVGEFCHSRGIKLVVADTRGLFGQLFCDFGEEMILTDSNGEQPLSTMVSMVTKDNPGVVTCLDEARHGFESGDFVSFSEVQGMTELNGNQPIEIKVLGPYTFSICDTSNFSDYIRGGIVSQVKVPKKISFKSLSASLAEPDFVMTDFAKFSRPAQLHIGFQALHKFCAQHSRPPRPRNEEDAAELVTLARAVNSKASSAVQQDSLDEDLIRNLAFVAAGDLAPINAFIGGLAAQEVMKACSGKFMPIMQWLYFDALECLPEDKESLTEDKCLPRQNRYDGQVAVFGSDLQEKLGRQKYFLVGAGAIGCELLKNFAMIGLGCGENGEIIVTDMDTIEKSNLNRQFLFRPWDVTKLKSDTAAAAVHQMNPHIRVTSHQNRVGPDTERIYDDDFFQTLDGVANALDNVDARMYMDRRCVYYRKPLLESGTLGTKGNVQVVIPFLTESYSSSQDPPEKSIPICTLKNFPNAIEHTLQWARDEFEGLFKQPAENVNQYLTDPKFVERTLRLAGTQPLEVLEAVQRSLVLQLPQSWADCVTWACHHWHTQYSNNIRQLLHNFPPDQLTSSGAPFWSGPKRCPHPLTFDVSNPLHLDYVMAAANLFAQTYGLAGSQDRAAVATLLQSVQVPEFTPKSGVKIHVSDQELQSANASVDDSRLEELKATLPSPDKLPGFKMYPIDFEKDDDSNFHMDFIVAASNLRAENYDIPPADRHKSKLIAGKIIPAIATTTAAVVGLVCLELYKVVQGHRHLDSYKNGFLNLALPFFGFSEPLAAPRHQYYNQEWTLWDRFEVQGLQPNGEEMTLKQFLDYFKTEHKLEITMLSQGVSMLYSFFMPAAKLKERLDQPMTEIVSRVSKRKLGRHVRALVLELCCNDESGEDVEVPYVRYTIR
Experimental: Since Mdm2 autoubiquitination depends on the activity of E1 and E2, some of these might act by inhibiting E1. In fact, some did block the formation of thiolester linkages between ^32P-labeled ubiquitin and E1 (FIG. 1B). The compound 4-[4-(5-nitro-furan-2-ylmethylene)-3,5-dioxo-pyrazolidin-1-yl]-benzoic acid methyl acid was active at a concentration of 20-50 μM.
b. “E1 Only” Assay. • 2 μl rabbit E1+12 μl of 1× reaction buffer are mixed together with the test compound followed by addition of 1 μl of ^32P Ub. After incubating for 10 minutes at room temperature, the samples are denatured using loading buffer without reducing agent and subjected to SDS-PAGE under non-reducing conditions to maintain thiol-ester linkages and exposure as above.

Mdm2 = experiment: Cellular Mdm2 level by immunoblotting; type: cell-based; conditions: six hours treatment; RPE cells
Description: FIG. 5A depicts the increase in the levels of Mdm2 and p53 in RPE cells after treatment with the E1 inhibitor 4-[4-(5-nitro-furan-2-ylmethylene)-3,5-dioxo-pyrazolidin-1-yl]-benzoic acid methyl acid.

J588 mouse myeloma cells = experiment: Killing of myeloma cells; type: cell-based
Description: FIG. 6B depicts the dose-depending killing of J588 mouse myeloma cells by proteasome and E1 inhibitor by 4-[4-(5-nitro-furan-2-ylmethylene)-3,5-dioxo-pyrazolidin-1-yl]-benzoic acid methyl acid.
While p53 induces apoptotic cell death in many tumor cells, it generally only induces growth arrest in untransformed cells. This has been the rationale for many studies targeting the p53 system.

E1 = molecular target: T2, E1 (Homo sapiens, UniProt P22314); experiment: Loading of E1 with ubiquitin in cells, anti-E1 immunoblot; type: cell-based; conditions: 50 μM, 1 hour
T2 construct: endogenous in cells; host or cells: RPE cells
T2 sequence (P22314 1-1058): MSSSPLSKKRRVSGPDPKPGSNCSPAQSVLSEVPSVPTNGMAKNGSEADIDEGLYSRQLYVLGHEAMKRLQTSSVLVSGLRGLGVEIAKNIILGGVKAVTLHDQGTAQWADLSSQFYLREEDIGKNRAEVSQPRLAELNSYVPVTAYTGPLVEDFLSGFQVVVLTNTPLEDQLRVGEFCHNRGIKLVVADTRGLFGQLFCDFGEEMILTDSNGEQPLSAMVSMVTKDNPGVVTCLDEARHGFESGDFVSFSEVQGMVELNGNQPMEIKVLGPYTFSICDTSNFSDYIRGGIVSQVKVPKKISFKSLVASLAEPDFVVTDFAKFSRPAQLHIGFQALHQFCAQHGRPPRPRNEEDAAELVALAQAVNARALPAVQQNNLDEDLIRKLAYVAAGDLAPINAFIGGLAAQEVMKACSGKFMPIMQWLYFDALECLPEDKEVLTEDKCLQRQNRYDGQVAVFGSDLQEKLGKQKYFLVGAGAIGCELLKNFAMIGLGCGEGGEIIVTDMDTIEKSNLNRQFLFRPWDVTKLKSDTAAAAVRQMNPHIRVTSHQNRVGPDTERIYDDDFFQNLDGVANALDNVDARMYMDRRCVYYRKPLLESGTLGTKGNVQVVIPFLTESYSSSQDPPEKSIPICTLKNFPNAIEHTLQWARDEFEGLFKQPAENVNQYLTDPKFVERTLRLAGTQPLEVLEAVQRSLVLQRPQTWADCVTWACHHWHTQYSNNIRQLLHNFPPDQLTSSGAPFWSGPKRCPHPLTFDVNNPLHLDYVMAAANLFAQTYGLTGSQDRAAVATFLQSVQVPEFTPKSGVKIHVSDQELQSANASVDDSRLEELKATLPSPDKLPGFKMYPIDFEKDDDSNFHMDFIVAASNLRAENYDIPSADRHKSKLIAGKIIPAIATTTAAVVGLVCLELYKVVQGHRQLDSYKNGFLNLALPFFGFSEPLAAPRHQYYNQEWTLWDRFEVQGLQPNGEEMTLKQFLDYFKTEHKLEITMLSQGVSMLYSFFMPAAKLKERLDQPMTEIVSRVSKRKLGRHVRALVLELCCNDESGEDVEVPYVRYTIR
Experimental: RPE cells were treated with the E1 inhibitor of 4-[4-(5-nitro-furan-2-ylmethylene)-3,5-dioxo-pyrazolidin-1-yl]-benzoic acid methyl acid (designated as EI-41, 50 μM), HLI98C (50 μM) or iodoacetamide […] for 1 hour followed by lysis, SDS-PAGE under either non-reducing (FIG. 7A) or reducing (FIG. 7B) conditions and immunoblotting with anti-E1. Results are shown in FIGS. 7A and 7B, where the EI-41 compound is shown to inhibit the loading of EI with ubiquitin.

concentration at which the compound was active (Rabbit E1): 20 to 50 µM | E1-Ub thiol-ester formation in RPE cells (E1): inhibit E1-Ub thiol-ester formation
Compound: COC(=O)c1ccc(N2NC(=O)/C(=C/c3ccc([N+](=O)[O-])o3)C2=O)cc1 [E1-41, 4-[4-(5-nitro-furan-2-ylmethylene)-3,5-dioxo-pyrazolidin-1-yl]-benzoic acid methyl acid]
cellular Mdm2 level (Mdm2): increased | killing of myeloma cells (J588 mouse myeloma cells): kills myeloma cells in a dose-dependent manner
